Experimental data reported in patent US20160038438A1, “COMBINATION OF NORDIHYDROGUAIARETIC ACID AND AN AMINOGLYCOSIDE” (HELPERBY THERAPEUTICS LIMITED, priority 2013, published 2016).

How the values were obtained:
enterobacteria = conditions: cited from earlier work
log phase S. aureus [1] = test: Time kill curve, HT013006 alone and with gentamycin, log phase S. aureus; type: cell-based, Staphylococcus aureus
Text: HT013006 alone and in combination with gentamycin against log phase S. aureus using time kill curve.

[2] = test system: log phase Staphylococcus aureus Oxford strain; test: Time kill, HT013006 with neomycin, log phase S. aureus Oxford strain; type: cell-based
Experimental: Using the methods described in Example 2, HT013006 was tested in combination with neomycin against log phase Staphylococcus aureus Oxford strain over a time period of 24 hours.

log phase S. aureus [3] = test: Chequerboard method, HT013006 (NDGA) with gentamycin, log phase S. aureus; type: cell-based, Staphylococcus aureus; conditions: for MIC before combination: drug alone, log phase S. aureus
Experimental: Log phase growth of S. aureus was carried out as described in the art. HT013006 in combination with gentamycin against log phase S. aureus using chequerboard method The effects of combination were examined by calculating the fractional inhibitory concentration index (FICI) of each combination, as follows: (MIC of drug A, tested in combination)/(MIC of drug A, tested alone)+(MIC of drug B, tested in combination)/(MIC of drug B, tested alone). The interaction of the combination was defined as showing synergy if the FICI was ≦0.5, no interaction if the FICI was >0.5 but <4.0 and antagonism if the FICI was >4.0.

[4] = test system: log phase Staphylococcus aureus gentamycin resistant clinical strain; test: Time kill, HT013006 with gentamycin, gentamycin resistant clinical strain; type: cell-based
Experimental: • 1. HT013006 at 16 and 8 μg/ml had no activities against log phase MRSA. • 2. […] The minimal concentration of HT013006 was 2 μg/ml when combined with 0.5 and 0.25 μg/ml of gentamycin. • (b) log phase phase Staphylococcus aureus gentamycin resistant clinical strain by time kill (340)

[5] = test system: log phase methicillin resistant Staphylococcus aureus clinical strain; test: Time kill, HT013006 with gentamycin, log phase MRSA clinical strain; type: cell-based
yeast pathogens = conditions: against yeast pathogens; cited from earlier work
[6] = HT013006 alone at 16, 8, 4 and 2 μg/ml

For `Cc1cn([C@H]2C[C@H](N=[N+]=[N-])[C@@H](CO)O2)c(=O)[nH]c1=O` [AZT, zidovudine], the “interaction with the aminoglycosides amikacin and gentamycin” value (enterobacteria; against enterobacteria) is listed as “additive or synergistic activity” and the effect on bacteria (enterobacteria; some enterobacteria) is listed as “bactericidal effect”.
In the case of `CC(Cc1ccc(O)c(O)c1)C(C)Cc1ccc(O)c(O)c1` (stereo not shown) [HT013006, nordihydroguaiaretic acid], the “activity in time kill” value (log phase S. aureus [1]; [6]) is reported as “no activities”, the “activity in time kill” value (log phase S. aureus [1]; HT013006 alone at 16 and 8 μg/ml) is reported as “no activities” and the “activity in time kill” value ([2]; HT013006 alone at 16, 8, 4 and 2 μg/ml, 24 hours) is reported as “no activities”. The “minimal concentration of HT013006 which showed maximal enhanced effect” value ([2]; in combination with neomycin) was 8 µg/mL, the “MIC of HT013006 in combination” value (log phase S. aureus [3]; combined with 0.25 μg/ml of gentamycin) was 1 µg/mL and the MIC before combination (log phase S. aureus [3]) was 64 µg/mL. For the same compound, the “activity in time kill” value [4, 6] was “no activities”, the “minimal concentration of HT013006 which showed enhanced activities” value ([4]; combined with 4 and 2 μg/ml of gentamycin) was 2 µg/mL and the “activity in time kill” value ([5]; HT013006 alone at 16 and 8 μg/ml, log phase MRSA) was “no activities”. The “minimal concentration of HT013006 in combination” value ([5]; combined with 0.5 and 0.25 μg/ml of gentamycin) was 2 µg/mL and the “effect on amphotericin B activity” value (yeast pathogens) was “enhancing the effect of amphotericin B”.
For gentamycin [reference compound], the “activity in time kill” value (log phase S. aureus [1]; gentamycin 0.0625 μg/ml) was “no activity”, the “activity in time kill” value (log phase S. aureus [1]; gentamycin 0.125 μg/ml) was “inhibition over 8 hours of treatment, then regrowth was seen” and the regrowth (log phase S. aureus [1]; gentamycin 0.25 μg/ml) was “regrowth was seen after 4 hours”. For the same compound, the kill (log phase S. aureus [1]; gentamycin 0.25 μg/ml, at 4 hours of incubation) was 3 log, the regrowth (log phase S. aureus [1]; gentamycin 0.5 μg/ml) was “regrowth was seen after 2 hours” and the kill (log phase S. aureus [1]; gentamycin 0.5 μg/ml, at 2 hours of incubation) was 3.5 log. For the same compound, the “MIC of gentamycin in combination” value (log phase S. aureus [3]; combined with 16 μg/ml of HT013006) was 0.0078 µg/mL, the MIC before combination (log phase S. aureus [3]) was 0.5 µg/mL and the “activity in time kill” value ([4]; gentamycin at 4, 2, 1 and 0.5 ug/ml, strain 17) was “no activities”.
